Consider eight compounds from patent publication US20190142800A1, “SYNERGISTIC ANTIFUNGAL COMPOSITIONS AND METHODS THEREOF” (VYOME THERAPEUTICS LIMITED, priority 2016, published 2019).

Usually MIC stands for the lowest concentration that inhibits growth of the organism.

Experiment [1] relates to terbinafine resistant Trichophyton interdigitale (GTB-2S). Put plainly: Checkerboard assay on terbinafine resistant Trichophyton interdigitale (GTB-2S). The class given is cell-based. The conditions noted are these: for MIC: Trichophyton interdigitale, agent alone, Table 7. As to the method: The synergy is measured by determining the fractional inhibitory concentration (FIC) value of the combination. This experimental set up, called checkerboard method, allows measurement of a desired effect (inhibition of fungal growth in this case) at different combinations of various concentrations of the two agents (antifungal agent and fatty acid/ester). […] No agent is added to the penultimate column on the right and the bottom row. The final column on the right is used for growth control (only inoculum in broth) and sterility control (broth alone, no inoculum). […] FIC values for both agents in a particular well were calculated in this way followed by determination of the FIC index (sum of the FICs of each drug in the concerned well). […] Agents Chemother.
(§1) Using the checkerboard layout experimental setup described above (FIG. 1A), various medium-chain fatty acids were tested for their ability to potentiate the activity of a known antifungal agent. Concentrations above and below the MIC of each test agent were tested using serial dilution. The same procedure was expanded to test combinations of various medium-chain fatty acids C-1 to C-14 (such caprylic acid, undecylenic acid and lauric acid) and esters thereof, with antifungal agents from various classes including azoles, allylamines, benzylamines, zinc pyrithione and piroctone olamine against both susceptible and resistant Trichophyton spp. (filamentous fungus) and Candida spp. (yeast).
Potentiation of the activity of antimycotic agents using ester derivatives of medium chain fatty acids was tested in a standard, well accepted in vitro assay system to check for synergy. This experimental set up, called checkerboard method, allows measurement of a desired effect (inhibition of fungal growth in this case) at different combinations of various concentrations of two agents. A chosen medium chain fatty acid (C-1 to C-14) or its ester derivative was tested for its ability to potentiate the activity of a known antifungal agent (various classes) using the checkerboard layout. Various concentrations above and below the MIC of each test agent were tested using serial dilution in Sabouraud dextrose broth. […] FIC values for both test agents in a particular well are calculated in this way followed by determination of the FIC index (sum of the FICs of each drug in the concerned well).

Experiment [2] deals with C. albicans (ATCC-90028). Put plainly: Checkerboard assay on C. albicans (ATCC-90028). The experiment is classed as cell-based, Candida albicans. The conditions noted are these: for MIC: Candida albicans, ATCC90028, agent alone, Table 8. As to the method: The synergy is measured by determining the fractional inhibitory concentration (FIC) value of the combination. This experimental set up, called checkerboard method, allows measurement of a desired effect (inhibition of fungal growth in this case) at different combinations of various concentrations of the two agents (antifungal agent and fatty acid/ester). […] No agent is added to the penultimate column on the right and the bottom row. The final column on the right is used for growth control (only inoculum in broth) and sterility control (broth alone, no inoculum). […] FIC value for each agent in a particular well of the checkerboard layout was calculated by dividing the agent concentration in that well by the established MIC value of the agent against the test organism (Hsieh et al., Synergy assessed by checkerboard: A critical Analysis, Diagn. Microbiol. Infect Dis. (1993) 16:343-349). FIC values for both agents in a particular well were calculated in this way followed by determination of the FIC index (sum of the FICs of each drug in the concerned well). […] Agents Chemother. (2010) 54(2): 602-609].
as §1
Potentiation of the activity of antimycotic agents using ester derivatives of medium chain fatty acids was tested in a standard, well accepted in vitro assay system to check for synergy. This experimental set up, called checkerboard method, allows measurement of a desired effect (inhibition of fungal growth in this case) at different combinations of various concentrations of two agents. A chosen medium chain fatty acid (C-1 to C-14) or its ester derivative was tested for its ability to potentiate the activity of a known antifungal agent (various classes) using the checkerboard layout. Various concentrations above and below the MIC of each test agent were tested using serial dilution in Sabouraud dextrose broth. […] FIC value for a drug in a particular well of the checkerboard layout is calculated by dividing the drug concentration in that well by the established MIC value of the drug against the test organism (Hsieh et al., Synergy assessed by checkerboard: A critical Analysis, Diagn. Microbiol. Infect Dis. (1993) 16:343-349). FIC values for both test agents in a particular well are calculated in this way followed by determination of the FIC index (sum of the FICs of each drug in the concerned well).

Experiment [3] has as its system azole resistant C. albicans MTCC 227. The experiment in a line: Checkerboard assay on azole resistant C. albicans MTCC 227. To be noted: for MIC: Candida albicans, MTCC227, agent alone. The experiment is classed as cell-based, Candida albicans.
Experiment [4] relates to M. furfur (MTCC 1374). Put plainly: Lipid assimilation in vitro assay: fatty acids/esters as nutrients for growth of M. furfur. The experiment is classed as cell-based, Malassezia furfur. To be noted: Sabouraud dextrose agar, after 6 days. An excerpt:
Malassezia species are lipophilic unipolar yeasts recognized as commensals of skin that may be pathogenic under certain conditions (Jindo et al 2004: Indian Journal of Medical Microbiology (22: 179). To compare lipid requirements of the fungus most closely associated with dandruff/seborrheic dermatitis, the best studied Malassezia species is M. furfur. Lipid assimilation in vitro assay was designed to investigate lipid effect on growth of M. furfur (MTCC 1374).
Briefly, Sabouraud Dextrose containing low-melt agar was melted, cooled to 38° C. Fatty acids/esters constituents eg, propylene glycol monocaprylate (C-8), capric acid (C-10), caprylic acid (C-8), linoleic acid (C-18), oleic acid (C-18), palmitic acid (C-16), ethyl oleate (C-18), and oils containing fatty acid/esters eg, coconut oil, mustard oil etc., were added to study the growth of the fungus (Kaw Bing CHUA, et al Malaysian J Pathol (2005) 27(2): 99). After solidification, agar plates were streaked with M. furfur innoculum adjusted to appropriate cfu/ml, aseptically. Positive control with 2% olive oil and negative control without fatty substance were also maintained.

[5] abbreviates: agent's MIC in combination luliconazole + caprylic acid.
Where [6] appears, read: combination luliconazole + caprylic acid.
Setting [7] is: Table 9, caprylic acid (C8) series.
[8] abbreviates: agent's MIC in combination luliconazole + glyceryl monocaprylate.
[9] abbreviates: combination luliconazole + glyceryl monocaprylate.
[10] abbreviates: in combination with caprylic acid.
Setting [11] is: in combination with glyceryl monocaprylate.
Setting [12] is: antifungal in combination with caprylic acid.
Where [13] appears, read: antifungal in combination with lauric acid.
Setting [14] is: antifungal in combination with propylene glycol monocaprylate.
The mark [15] stands for this setting: antifungal in combination with undecylenic acid.

Turning to `CCCCCCCC(=O)O` [Caprylic acid], the figures for the MIC in experiment [1], in experiment [2] and in experiment [3] (setting [7]) were 15.6 µg/mL, 125 µg/mL and 250 µg/mL, respectively. The “Combination MIC” value in experiment [1] (agent's MIC in combination terbinafine or butenafine + caprylic acid) turned out to be 7.812 µg/mL; in experiment [2] (setting [5]), 31.25 µg/mL. The FIC in experiment [1] (combination terbinafine or butenafine + caprylic acid) was 0.5; in experiment [2] (setting [6]) it was 0.25. Moreover, the “growth of M. furfur on culture media containing the fatty acid/ester or oil” value in experiment [4] is “no growth”.
As to `CCCCCCCC(=O)OCC(O)CO` (stereo not drawn) [Glyceryl monocaprylate], the MIC in experiment [1] was found to be 15.6 µg/mL; in experiment [2] it was 500 µg/mL; in experiment [3] (Table 11, glyceryl monocaprylate series), 1250 µg/mL. The results for the “Combination MIC” value in experiment [1] (agent's MIC in combination terbinafine or butenafine + glyceryl monocaprylate), in experiment [2] (setting [8]) and in experiment [3] (agent's MIC in combination antifungal + glyceryl monocaprylate (partner: other agent of same combination no.)) were 7.812 µg/mL, 31.25 µg/mL and 312.5 µg/mL, respectively. For the same compound, the FIC worked out at 0.5 in experiment [1] (combination terbinafine or butenafine + glyceryl monocaprylate), 0.0625 in experiment [2] (setting [9]) and 0.25 in experiment [3] (combination antifungal + glyceryl monocaprylate).
In the case of `N#C/C(=C1/SC[C@@H](c2ccc(Cl)cc2Cl)S1)n1ccnc1` [Luliconazole], the minimum inhibitory concentration (MIC) in experiment [2] was 7.5 µg/mL; in experiment [3] (setting [7]), 8 µg/mL; in experiment [3] (Table 10, propylene glycol monocaprylate series), 8 µg/mL; in experiment [3] (Table 12, undecylenic acid (C11) series), 8 µg/mL; in experiment [3] (Table 13, lauric acid (C12) series) it was 8 µg/mL. The “Combination MIC” value was 0.117 µg/mL in experiment [2] (setting [5]); 0.117 µg/mL in experiment [2] (setting [8]); 0.5 µg/mL in experiment [3] (agent's MIC in combination antifungal + caprylic acid (partner: other agent of same combination no.)); 1 µg/mL in experiment [3] (agent's MIC in combination antifungal + lauric acid (partner: other agent of same combination no.)); 0.5 µg/mL in experiment [3] (agent's MIC in combination antifungal + propylene glycol monocaprylate (partner: other agent of same combination no.)); 1 µg/mL in experiment [3] (agent's MIC in combination antifungal + undecylenic acid (partner: other agent of same combination no.)). In addition, the FIC in experiment [2] (setting [6]) was determined as 0.015; in experiment [2] (setting [9]), 0.0156; in experiment [3] (combination antifungal + caprylic acid), 0.062; in experiment [3] (combination antifungal + lauric acid) it was 0.125; in experiment [3] (combination antifungal + propylene glycol monocaprylate) it was 0.0625; in experiment [3] (combination antifungal + undecylenic acid), 0.125. Also, the FIC index in experiment [2] (setting [10]) turned out to be 0.265; in experiment [2] (setting [11]) it was 0.0781; in experiment [3] (setting [12]), 0.3; in experiment [3] (setting [13]), 0.25; in experiment [3] (setting [14]), 0.187; in experiment [3] (setting [15]) it was 0.187. Also, the Interaction entry in experiment [2] (setting [10]), in experiment [2] (setting [11]), in experiment [3] (setting [12]), in experiment [3] (setting [13]), in experiment [3] (setting [14]) and in experiment [3] (setting [15]) was “Synergistic (Combinations that gave FIC indices less than 1 were designated “synergistic”)” throughout.
As to `CCCCCCCCCC(=O)O` [capric acid], in experiment [4], the “growth of M. furfur on culture media containing the fatty acid/ester or oil” value was “no growth”.
Same read-out and setting: as for `CCCCCCCC/C=C\CCCCCCCC(=O)OCC` [ethyl oleate], the entry is “confluent growth”; as for `CCCCC/C=C\C/C=C\CCCCCCCC(=O)O` [linoleic acid], “confluent growth”; as for `CCCCCCCC/C=C\CCCCCCCC(=O)O` [oleic acid], “confluent growth”.
The same measure, in the same setting: the same measure for `CCCCCCCCCCCCCCCC(=O)O` [palmitic acid]: “confluent growth”.
